In patent US12263143B2, “Ionic channel modulation as a method for treating tumors through inflammasome activation” (priority 2019, dated 2025):

How the values were obtained:
two tumor types = settings: anti-PD-1 resistant mice, WO2018203262A1; cited from earlier work
inflammasome (NLRP3) = settings: prior application WO2018203262A1; cited from earlier work
TORID = TORID (Homo sapiens, UniProt Q3YBM2); settings: prior application WO2018203262A1; cited from earlier work
[1] = tested on: Tmem176b (TORID-1) and Tmem176a (TORID-2); assay: TORID-dependent ion flux, ANG-2 Na+-sensitive dye MFI in transfected CHO-7 cells; format: cell-based; settings: CHO-7 cells transfected with Tmem176b and Tmem176a-mcherry pSecTag2B plasmids, vs untreated cells
Experimental: (§1) Triggering inflammasome activation: Mouse bone marrow-derived dendritic cells (BMDCs) are treated with LPS and ATP to trigger NLRP3 inflammasome activation in the presence of vehicle control (DMSO) or the indicated ion channels modulators. IL-1β is measured in the culture supernatant by ELISA. • [IL-1β was used to measure the degree of inflammasome activation] • b. Inhibiting TORID-dependent ion flux: CHO-7 cells were transfected with TORID-1 and TORID-2 plasmids. Cells were then loaded with the Na^+-sensitive fluorescent dye-ANG-2-. ANG-2 mean fluorescence intensity (MFI) subtracting in each condition the MFI obtained in Na+-free buffer substituted with NMDG+ is shown. Cells left untreated or treated with the indicated drugs were studied • [MFI was used to measure the degree of inhibition of TORID-dependent ion flux.
(§2) IL-1β was measured in the culture supernatant by ELISA. • B CHO-7 cells were transfected with Tmem176b (TORID-1) and Tmem176a (TORID-2)-mcherry-coding pSecTag2B plasmids. Cells were then loaded with the Na^+-sensitive fluorescent dye Asante NaTRIUM Green 2 (ANG-2). ANG-2 mean fluorescence intensity (MFI) subtracting in each condition the MFI obtained in Na^+-free buffer substituted with NMDG^+ is shown. Cells left untreated or treated with the indicated drugs were studied.

NLRP3 inflammasome = NLRP3 inflammasome activation in LPS/ATP-treated BMDCs, IL-1β in culture supernatant by ELISA; format: cell-based; settings: mouse BMDCs, LPS 0.25 μg/ml for 3 hr and ATP 0.5 mM, vs vehicle control (DMSO)
Experimental: as §1, §2

Chain of TORID (Q3YBM2 whole entry): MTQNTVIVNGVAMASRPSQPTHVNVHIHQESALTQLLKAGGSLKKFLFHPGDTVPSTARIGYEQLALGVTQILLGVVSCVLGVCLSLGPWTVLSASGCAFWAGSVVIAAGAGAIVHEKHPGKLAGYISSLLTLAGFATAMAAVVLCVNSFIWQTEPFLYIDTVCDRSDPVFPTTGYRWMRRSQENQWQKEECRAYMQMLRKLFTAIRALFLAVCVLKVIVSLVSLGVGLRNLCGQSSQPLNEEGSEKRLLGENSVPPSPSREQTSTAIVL

| Compound | rate of survival (two tumor types) | inflammasome (NLRP3) expression (inflammasome (NLRP3)) | TORID activity (TORID) | TORID activity (ANG-2 MFI, Na+-free NMDG+ buffer MFI subtracted) [1] | NLRP3 inflammasome activation (IL-1β in culture supernatant by ELISA) (NLRP3 inflammasome) |
| --- | --- | --- | --- | --- | --- |
| COC(=O)C1=C(C)NC(C)=C([N+](=O)[O-])C1c1ccccc1C(F)(F)F (single isomer, unassigned; (+)) [(+)BAY K8644, Methyl 2,6-dimethyl-5-nitro-4-[2-(trifluoromethyl)phenyl]-1,4-dihydropyridine-3-carboxylate] | higher rate of survival | increased inflammasome (NLRP3) expression | inhibited TORID activity |  |  |
| CCN1C[C@]2(COC)[C@H](O)C[C@H](OC)[C@@]34[C@@H]5C[C@@]6(O)[C@H](OC(=O)c7ccccc7)[C@@H]5[C@@](OC(C)=O)([C@@H]([C@H](OC)[C@H]23)[C@@H]14)[C@@H](O)[C@@H]6OC [Aconitine] |  |  |  | inhibit TORID activity | enhance NLRP3 inflammasome activation |
| CCN(CC)CC(=O)Nc1c(C)cccc1C [Lidocaine] |  |  |  | inhibit TORID activity | enhance NLRP3 inflammasome activation |
| CCN(CC)CCNC(=O)c1ccc(N)cc1 [Procainamide] |  |  |  | inhibit TORID activity | enhance NLRP3 inflammasome activation |
